Laboratory results as given in US9346769B2, “Tetrazolones as inhibitors of fatty acid synthase” (Infinity Pharmaceuticals, Inc., priority 2010, dated 2016).

Target: T1, human FASN (Homo sapiens, UniProt P49327)
T1 construct: was purified from SKBR3 cells using procedures modified from those in Jayakumar et al; endogenous in cells; host or cells: SKBR3 human breast cancer cells (ATCC); Endogenous enzyme purified by ammonium sulfate precipitation and a mono Q column
Assay: FASN NADPH Consumption Assay
Format: biochemical
Details: human FASN purified from SKBR3 cells; starred symbols
Description: Human FASN protein (SEQ ID NO. 1) was purified from SKBR3 cells using procedures modified from those in Jayakumar et al. PNAS 1995, 92:8695-8699. SKBR3 cells were obtained from ATCC and grown in DMEM high glucose medium supplemented with 10% FBS, 1 μg/mL bovine pancreas insulin, 100 U/mL penicillin and 100 µg/mL streptomycin. The confluent cells were trypsinized and washed three times with PBS buffer before frozen in liquid N2 and stored at −80° C. Frozen cells were thawed on ice and resuspended in lysis buffer (25 mM Tris-HCl, pH 7.0, 15 mM NaCl, 1 mM EDTA, and 1 mM DTT) with protease inhibitors. The cells were lysed by sonication, and the cell debris was removed by centrifugation at 20,000 rpm for 30 min. To the supernatant, neutralized saturated ammonium sulfate solution was added to a final concentration of 35%. The solution was left on ice for 1 hr, and the precipitated proteins were harvested by centrifugation at 20,000 rpm for 30 min. The proteins were redissolved in lysis buffer without NaCl and loaded on a mono Q column. Bound proteins were eluted with a linear gradient of NaCl in lysis buffer. Each fraction was analyzed by SDS-PAGE and FASN NADPH consumption assay. The fractions containing FASN were pooled and concentrated to 2-3 mg/mL. Glycerol was added to 20%, and the protein was frozen in liquid N2 and stored at −80° C.
All chemicals were purchased from Sigma (St. Louis, Mo.). The procedures of NADPH consumption assay were similar to those described in Cox et al., PNAS 1983, 80:4233-4237. On a 96-well polypropylene microplate, dilution series (typical concentrations 60 nM-1.0 mM) of test compounds were prepared in DMSO, of which 4.0 μL each was transferred to a black polystyrene assay microplate and mixed with 36 μL FASN assay buffer (50 mM potassium phosphate, pH 7.0, 1.0 mM EDTA, 0.01% NP-40) plus 5.0 mM fresh DTT. FASN protein (40 μL 150 nM FASN) was added per well, and the microplate was incubated at 37° C. for 30 min. Enzyme activity measurement was initiated by addition of 20 μL 5× substrate mixture to final concentrations of 60 nM FASN, 2.4 nM-40 μM compound, 0.2 mM NADPH, 50 μM butyryl-CoA, 0.5 mM malonyl-CoA in 100 μL assay buffer plus 5.0 mM DTT and 4.0% DMSO. NADPH consumption was monitored kinetically by fluorescence (λEx=340 nm, λEm=460 nm) on an EnVision 2100 multilabel plate reader (Perkin Elmer, Waltham, Mass.). FASN enzyme activity (slope) in the presence of 4% DMSO was used as maximum control, whereas background (minimum control) was measured by omission of malonyl-CoA in the substrate mixture. Inhibition curves were fitted by a logistic function to yield IC50 values:
Compounds were assayed as inhibitors of human FASN using the above-described FASN Scintillation Proximity Flashplate Assay (IC50; nM) or FASN NADPH Consumption Assay (*) (IC50; nM). The corresponding activity of the isolated compound is also provided along with the measured mass (ES^+).

T1 sequence (P49327 whole entry): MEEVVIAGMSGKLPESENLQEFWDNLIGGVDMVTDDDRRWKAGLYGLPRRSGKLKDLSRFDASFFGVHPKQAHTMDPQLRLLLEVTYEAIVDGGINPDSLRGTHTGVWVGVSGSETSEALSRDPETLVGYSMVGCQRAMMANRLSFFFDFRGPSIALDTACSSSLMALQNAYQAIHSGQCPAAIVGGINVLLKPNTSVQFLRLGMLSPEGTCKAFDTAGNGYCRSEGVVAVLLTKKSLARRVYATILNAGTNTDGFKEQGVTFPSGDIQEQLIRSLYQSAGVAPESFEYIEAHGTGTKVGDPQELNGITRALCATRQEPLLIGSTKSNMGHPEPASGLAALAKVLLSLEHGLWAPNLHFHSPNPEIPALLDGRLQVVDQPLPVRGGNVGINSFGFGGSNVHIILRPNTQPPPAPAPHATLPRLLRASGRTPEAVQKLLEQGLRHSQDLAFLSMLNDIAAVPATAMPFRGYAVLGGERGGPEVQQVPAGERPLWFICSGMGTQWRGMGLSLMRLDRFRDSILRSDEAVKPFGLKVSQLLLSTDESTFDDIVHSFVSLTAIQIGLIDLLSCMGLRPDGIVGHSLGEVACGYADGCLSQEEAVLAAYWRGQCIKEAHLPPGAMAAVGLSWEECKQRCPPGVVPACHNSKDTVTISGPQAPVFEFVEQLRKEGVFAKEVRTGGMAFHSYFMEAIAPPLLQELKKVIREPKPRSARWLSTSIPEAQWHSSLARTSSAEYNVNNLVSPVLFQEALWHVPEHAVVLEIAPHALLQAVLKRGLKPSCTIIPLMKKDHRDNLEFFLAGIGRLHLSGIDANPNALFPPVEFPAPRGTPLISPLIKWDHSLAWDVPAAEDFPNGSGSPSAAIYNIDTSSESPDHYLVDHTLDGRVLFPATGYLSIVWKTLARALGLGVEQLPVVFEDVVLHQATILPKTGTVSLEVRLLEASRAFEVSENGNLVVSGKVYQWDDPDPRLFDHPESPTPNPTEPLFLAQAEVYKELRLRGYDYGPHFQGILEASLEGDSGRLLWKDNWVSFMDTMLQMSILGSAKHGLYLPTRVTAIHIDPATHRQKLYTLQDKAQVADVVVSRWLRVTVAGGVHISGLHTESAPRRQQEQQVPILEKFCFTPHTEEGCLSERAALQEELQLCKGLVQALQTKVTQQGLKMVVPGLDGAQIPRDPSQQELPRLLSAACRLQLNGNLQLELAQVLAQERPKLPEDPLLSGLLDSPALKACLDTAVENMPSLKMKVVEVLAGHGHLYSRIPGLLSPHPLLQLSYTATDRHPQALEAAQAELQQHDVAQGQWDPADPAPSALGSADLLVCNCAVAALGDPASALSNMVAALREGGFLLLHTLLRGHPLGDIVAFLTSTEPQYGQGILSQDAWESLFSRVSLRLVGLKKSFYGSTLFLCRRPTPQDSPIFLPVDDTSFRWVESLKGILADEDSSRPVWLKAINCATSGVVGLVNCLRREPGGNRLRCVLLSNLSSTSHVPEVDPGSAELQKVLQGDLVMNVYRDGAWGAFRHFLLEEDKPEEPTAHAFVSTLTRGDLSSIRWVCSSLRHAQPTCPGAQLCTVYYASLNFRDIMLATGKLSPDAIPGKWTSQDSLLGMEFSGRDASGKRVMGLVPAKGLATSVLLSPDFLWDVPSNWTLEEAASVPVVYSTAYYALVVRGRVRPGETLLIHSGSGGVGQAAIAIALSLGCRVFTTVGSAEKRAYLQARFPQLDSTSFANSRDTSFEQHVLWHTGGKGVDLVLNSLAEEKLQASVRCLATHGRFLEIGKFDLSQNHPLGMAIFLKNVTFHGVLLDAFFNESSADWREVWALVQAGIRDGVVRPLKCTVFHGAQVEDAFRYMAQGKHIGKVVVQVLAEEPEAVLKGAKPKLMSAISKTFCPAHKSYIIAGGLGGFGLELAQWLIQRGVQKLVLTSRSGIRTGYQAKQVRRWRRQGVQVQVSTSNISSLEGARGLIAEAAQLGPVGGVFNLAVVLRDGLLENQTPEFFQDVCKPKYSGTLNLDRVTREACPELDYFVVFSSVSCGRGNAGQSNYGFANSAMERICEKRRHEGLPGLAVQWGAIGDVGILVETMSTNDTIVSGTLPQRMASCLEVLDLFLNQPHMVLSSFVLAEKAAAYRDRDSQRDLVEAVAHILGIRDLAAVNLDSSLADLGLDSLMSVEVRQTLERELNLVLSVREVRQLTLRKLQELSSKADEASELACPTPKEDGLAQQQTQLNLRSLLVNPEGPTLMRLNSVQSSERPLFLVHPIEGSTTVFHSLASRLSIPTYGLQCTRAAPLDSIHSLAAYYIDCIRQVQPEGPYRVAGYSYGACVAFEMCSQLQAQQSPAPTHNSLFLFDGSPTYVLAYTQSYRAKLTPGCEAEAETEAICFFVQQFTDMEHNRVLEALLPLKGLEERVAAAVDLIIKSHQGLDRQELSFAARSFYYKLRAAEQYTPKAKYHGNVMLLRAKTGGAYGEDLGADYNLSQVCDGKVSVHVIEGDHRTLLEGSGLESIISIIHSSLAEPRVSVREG

IC50 [nM] | SMILES
1000 to 10000 | O=C(N1CCCCC1)n1nnn(-c2c(Cl)cccc2Cl)c1=O
60 to 250 | CCN(C(=O)n1nnn(-c2c(Cl)cccc2Cl)c1=O)c1ccc(Cl)c(C(=O)OCc2ccccc2)c1
1000 to 10000 | CCN(C(=O)n1nnn(-c2c(Cl)cccc2Cl)c1=O)C1CCC(C(=O)NC)CC1 (stereo not drawn)
> 10000 | CCN(C(=O)n1nnn(-c2c(Cl)cccc2C(F)(F)F)c1=O)C1CCCCC1
1000 to 10000 | CN(C(=O)n1nnn(-c2ccccc2Cl)c1=O)c1ccccn1
60 to 250 | O=C(N1Cc2ccccc2Cc2ccccc21)n1nnn(-c2c(F)cccc2F)c1=O
1000 to 10000 | O=C(N(CCO)c1ccccc1)n1nnn(-c2c(F)cccc2F)c1=O
1000 to 10000 | CCN(C(=O)n1nnn(-c2ccccc2OC)c1=O)C1CCCCC1
> 10000 | CCN(C(=O)n1nnn(-c2c(Cl)cccc2Cl)c1=O)C1CCC(N(C)C)CC1 (stereo not drawn)
> 10000 | O=C(OCc1ccccc1)c1ccc(N(CCc2ccccc2)C(=O)n2nnn(-c3c(Cl)cccc3Cl)c2=O)cc1
60 to 250 | O=C(N1CCCc2ccccc21)n1nnn(-c2ccccc2Oc2ccccc2)c1=O
1000 to 10000 | CCN(C(=O)n1nnn(-c2c(Cl)cc(Cl)cc2Cl)c1=O)C1CCCCC1
> 10000 | O=C(N1CCCC1)n1nnn(-c2c(Cl)cccc2Cl)c1=O
1000 to 10000 | C/C=C/C/C=C/CCCN(C)C(=O)n1nnn(-c2ccccc2Cl)c1=O
1000 to 10000 | CCN(C(=O)n1nnn(-c2c(Cl)cccc2Cl)c1=O)C1CCCCC1
60 to 250 | O=C(N1CCCCc2ccccc21)n1nnn(-c2c(F)cccc2F)c1=O
60 to 250 | CCN(C(=O)n1nnn(-c2c(Cl)cccc2Cl)c1=O)c1cccc([N+](=O)[O-])c1
1000 to 10000 | CN(C(=O)n1nnn(-c2ccccc2Cl)c1=O)C1CCCCC1
250 to 1000 | CCN(C(=O)n1nnn(-c2c(Cl)cccc2Cl)c1=O)c1ccccc1
60 to 250 | CN(C(=O)n1nnn(-c2c(F)cccc2F)c1=O)c1ccc(Br)cc1
60 to 250 | CCN(C(=O)n1nnn(-c2c(F)cccc2CCc2ccccc2C)c1=O)c1ccccc1

IC50 [nM] | SMILES
1000 to 10000 | CCCCCCN(C)C(=O)n1nnn(-c2ccccc2Cl)c1=O
60 to 250 | Cc1cccc2c1N(C(=O)n1nnn(-c3c(F)cccc3F)c1=O)CCC2
1000 to 10000 | CCN(C(=O)n1nnn(-c2cccs2)c1=O)C1CCCCC1
60 to 250 | CCN(C(=O)n1nnn(-c2c(F)cccc2F)c1=O)c1ccc([N+](=O)[O-])cc1F
60 to 250 | CCN(C(=O)n1nnn(-c2c(Cl)cccc2Cl)c1=O)c1ccc([N+](=O)[O-])cc1
250 to 1000 | C/C=C/C/C=C/CCCN(CCC)C(=O)n1nnn(-c2ccccc2Cl)c1=O
> 10000 | CCN(C(=O)n1nnn(-c2c(C)noc2C)c1=O)C1CCCCC1
1000 to 10000 | CCNC(=O)N1CCCC(N(CC)C(=O)n2nnn(-c3c(Cl)cccc3Cl)c2=O)C1 (stereo not drawn)
60 to 250 | CCN(C(=O)n1nnn(-c2c(Cl)cccc2Cl)c1=O)c1ccccc1F
60 to 250 | CCN(C(=O)n1nnn(-c2c(F)cccc2F)c1=O)c1ccc(C#CC(C)(C)C)cc1F
60 to 250 | Nc1cccc2c1CCCN2C(=O)n1nnn(-c2c(F)cccc2F)c1=O
250 to 1000 | CCCCOc1ccccc1N(CC)C(=O)n1nnn(-c2c(F)cccc2OC)c1=O
60 to 250 | CCOC(=O)c1ccc(N(C(=O)n2nnn(-c3c(F)cccc3F)c2=O)N(C)C)cc1
1000 to 10000 | CCN(C(=O)n1nnn(-c2c(Cl)cccc2Cl)c1=O)C1CCN(S(C)(=O)=O)CC1
> 10000 | CC(C)N(C(=O)n1nnn(-c2ccccc2Cl)c1=O)C1CCCCC1
< 60 | CCN(C(=O)n1nnn(-c2c(F)cccc2OC)c1=O)c1ccc(C(=O)OCc2ccccc2)c(OC)c1
1000 to 10000 | CCN(CCOC(=O)[C@H](CC(C)C)NC=O)C(=O)n1nnn(-c2c(Cl)cccc2Cl)c1=O
250 to 1000 | CCN(C(=O)n1nnn(-c2ccccc2OC)c1=O)c1cccc(C(=O)O)c1OC
60 to 250 | CN(C(=O)n1nnn(-c2c(F)cccc2F)c1=O)c1cccc(F)c1
1000 to 10000 | CCN(C(=O)n1nnn(-c2c(Cl)cccc2Cl)c1=O)C1CCCN(C(=O)OC(C)(C)C)C1 (stereo not drawn)
1000 to 10000 | CCN(C(=O)n1nnn(-c2c(F)cccc2OC)c1=O)c1ccccc1C(C)(C)C

IC50 [nM] | SMILES
60 to 250 | CCN(C(=O)n1nnn(-c2ccccc2)c1=O)c1cc(C(=O)O)ccc1OC
60 to 250 | CN(C(=O)n1nnn(-c2c(F)cccc2F)c1=O)c1ccccc1C(F)(F)F
250 to 1000 | CC(C)N(C(=O)n1nnn(-c2ccccc2Cl)c1=O)c1ccccc1
60 to 250 | Nc1ccc2c(c1)CCCN2C(=O)n1nnn(-c2c(F)cccc2F)c1=O
> 10000 | CC(C)N(C(=O)n1nnn(-c2ccccc2Cl)c1=O)C(C)C
1000 to 10000 | CCN(C(=O)n1nnn(-c2cccc3nsnc23)c1=O)C1CCCCC1
60 to 250 | CCN(C(=O)n1nnn(-c2c(F)cccc2F)c1=O)c1ccccc1OC(F)(F)F
60 to 250 | CCN(C(=O)n1nnn(-c2c(F)cccc2F)c1=O)c1ccc(C(=O)OCc2ccccc2)cc1
250 to 1000 | O=C(N1CCCC2CCCCC21)n1nnn(-c2ccccc2Oc2ccccc2)c1=O (stereo not drawn)
250 to 1000 | CN(C(=O)n1nnn(-c2ccccc2Cl)c1=O)c1ccccc1
1000 to 10000 | CCN(C(=O)n1nnn(-c2c(Cl)cccc2Cl)c1=O)C1CCCC(C(=O)NC)C1 (stereo not drawn)
60 to 250 | CCN(C(=O)n1nnn(-c2ccccc2OC)c1=O)c1ccc(C(=O)O)cc1
60 to 250 | O=C(N1CCCC2CCCCC21)n1nnn(-c2c(F)cccc2Br)c1=O (stereo not drawn)
60 to 250 | CCN(C(=O)n1nnn(-c2c(F)cccc2F)c1=O)c1ccc(Cl)cc1
60 to 250 | CCN(C(=O)n1nnn(-c2c(F)cccc2C(=O)OC)c1=O)c1ccccc1
250 to 1000 | CN(C(=O)n1nnn(-c2ccccc2Br)c1=O)c1ccccc1
> 10000 | CCN(C(=O)n1nnn(-c2cccc(OC)c2)c1=O)C1CCCCC1
< 60 | CCN(C(=O)n1nnn(-c2c(F)cccc2F)c1=O)c1ccc(C(=O)NC(C)C)cc1F
250 to 1000 | CCN(C(=O)n1nnn(-c2c(Cl)cccc2Cl)c1=O)c1cccc(CO)c1
> 10000 | CCN(C(=O)n1nnn(-c2ccccc2)c1=O)C1CCCCC1
> 10000 | O=C(NC1CCCCC1)n1nnn(-c2ccccc2)c1=O

IC50 [nM] | SMILES
1000 to 10000 | CCN(C(=O)n1nnn(-c2ccc(N(C)C)cc2)c1=O)C1CCCCC1
1000 to 10000 | CNC(=O)CN(C(=O)n1nnn(-c2c(Cl)cccc2Cl)c1=O)C1CCCCC1
1000 to 10000 | CCN(C(=O)n1nnn(-c2c(Cl)cccc2Cl)c1=O)C1CCCN(C(=O)Cc2ccccc2)C1 (stereo not drawn)
1000 to 10000 | CC(C)(C)OC(=O)N[C@@H]1CCN(C(=O)n2nnn(-c3c(Cl)cccc3Cl)c2=O)C1
60 to 250 | CN(C(=O)n1nnn(-c2c(F)cccc2F)c1=O)c1cc(F)cc(F)c1
> 10000 | CCN(C(=O)n1nnn(-c2cccc(C(F)(F)F)c2)c1=O)C1CCCCC1
250 to 1000 | O=C(N1CCc2ccccc2C1)n1nnn(-c2c(F)cccc2F)c1=O
> 10000 | CNC(=O)[C@@H]1CCCN1C(=O)n1nnn(-c2c(Cl)cccc2Cl)c1=O
1000 to 10000 | C=CCN(C(=O)n1nnn(-c2ccccc2Oc2ccccc2)c1=O)C1CCN(C(=O)OC(C)(C)C)CC1
250 to 1000 | O=C(O)c1ccc(N(CCc2ccccc2)C(=O)n2nnn(-c3ccccc3)c2=O)cc1
1000 to 10000 | CCN(C(=O)n1nnn(-c2ccccc2OC)c1=O)c1cc(C(=O)O)ccc1OC(C)C
< 60 | CN(C(=O)n1nnn(-c2c(F)cccc2F)c1=O)c1ccccc1Cl
1000 to 10000 | CCN(C(=O)n1nnn(-c2c(C)cccc2Cl)c1=O)C1CCCCC1
250 to 1000 | CCN(C(=O)n1nnn(-c2c(Cl)cccc2Cl)c1=O)C1CCN(C(=O)Cc2ccccc2)CC1
1000 to 10000 | CC(C)(C)OC(=O)NCCCN(C(=O)n1nnn(-c2c(Cl)cccc2Cl)c1=O)C1CCCCC1
> 10000 | CCN(C(=O)n1nnn(-c2ccccc2Cl)c1=O)C(C)(C)C
1000 to 10000 | CCOC(=O)N1CCC(N(CC)C(=O)n2nnn(-c3c(Cl)cccc3Cl)c2=O)CC1
250 to 1000 | CCN(C(=O)n1nnn(-c2c(OC)cccc2OC)c1=O)c1ccc(C(=O)O)c(OC)c1
